Test results reported in patent US11840686B2, “Modulation of prekallikrein (PKK) expression” (Ionis Pharmaceuticals, Inc., priority 2013, dated 2023).
Strand notation (5' to 3'): a small letter for the sugar, then the base; units joined by * are phosphorothioate-linked, units joined directly phosphodiester-linked; [ ] holds rarer units or linkages, { } end groups; capitals alone tell only the bases. e = 2'-O-(2-methoxyethyl) (MOE); k = constrained ethyl (cEt); [5mC] = 5-methylcytosine; d = 2'-deoxy (DNA)

System: human PKK mRNA
Assay: Antisense inhibition of human PKK mRNA in HepaRG cells, 1,000 nM, MOE/deoxy/cEt oligonucleotides (Example 3)
Assay type: cell-based
How it was run: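 Readout is percent PKK mRNA reduction against untreated controls, by real-time PCR (RTS3454) adjusted for total RNA via RIBOGREEN. Oligonucleotides, phosphorothioate gapmers of 16 nucleosides with cEt, MOE and deoxy sugars, were delivered at 1,000 nM by electroporation to 20,000 HepaRG cells/well for roughly 24 h.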

[1] = HepaRG cells, electroporation with 1,000 nM antisense oligonucleotide, approximately 24 hours, primer probe set RTS3454, relative to untreated control cells, experiment of Table 23
[2] = HepaRG cells, electroporation with 1,000 nM antisense oligonucleotide, approx. 24 hours, PKK mRNA by RT-PCR (RTS3454), relative to untreated control cells, Table 25 experiment
[3] = HepaRG cells, electroporation with 1,000 nM antisense oligonucleotide, approx. 24 hours, PKK mRNA by RT-PCR (RTS3454), relative to untreated control cells, Table 26 experiment
[4] = Table 21 experiment, HepaRG cells, electroporation with 1,000 nM antisense oligonucleotide, approx. 24 hours, PKK mRNA by RT-PCR (RTS3454), relative to untreated control cells
[5] = HepaRG cells, 1,000 nM antisense oligonucleotide, Table 29
[6] = Table 27, HepaRG cells, 1,000 nM antisense oligonucleotide, human PKK mRNA
[7] = Table 20, HepaRG cells, electroporation with 1,000 nM antisense oligonucleotide, approximately 24 hours, PKK mRNA by RT-PCR (RTS3454), relative to untreated control cells
[8] = Table 22 experiment, HepaRG cells, electroporation with 1,000 nM antisense oligonucleotide, approx. 24 hours, PKK mRNA by RT-PCR (RTS3454), relative to untreated control cells
[9] = Table 28, HepaRG cells, 1,000 nM antisense oligonucleotide, human PKK mRNA
[10] = PKK mRNA, HepaRG cells, 1,000 nM antisense oligonucleotide, Table 31
[11] = Table 19, HepaRG cells, electroporation with 1,000 nM antisense oligonucleotide, approximately 24 hours, PKK mRNA by RT-PCR (RTS3454), relative to untreated control cells
[12] = HepaRG cells, electroporation with 1,000 nM antisense oligonucleotide, approximately 24 hours, primer probe set RTS3454, relative to untreated control cells, experiment of Table 24
[13] = Table 30, human PKK mRNA, HepaRG cells, 1,000 nM antisense oligonucleotide

## 547991 (antisense eT*eA*k[5mC]*dA*dG*dT*d[5mC]*dT*dT*d[5mC]*dT*dG*dG*kG*kA*eG) [compound 547991]
[1]
  % inhibition: 0%

## 548175 (eA*eT*k[5mC]*dT*d[5mC]*dA*dG*dT*dT*dG*d[5mC]*dG*dA*k[5mC]*k[5mC]*eT; antisense) [compound 548175]
[2]
  % inhibition: 0%

## 548241 (e[5mC]*eA*kT*dA*d[5mC]*dT*d[5mC]*dG*d[5mC]*d[5mC]*dT*dT*dT*kG*kT*eG; antisense) [compound 548241]
[3]
  % inhibition: 1%

## 547840 (antisense eT*eT*kG*d[5mC]*dT*dT*d[5mC]*dA*dA*dG*dG*dA*dA*kT*kG*eT) [compound 547840]
[4]
  % inhibition: 36%

## 547993 (antisense eT*eA*kG*dA*dT*dA*dA*dT*d[5mC]*dT*dT*dA*dA*kG*kA*eA) [compound 547993]
[1]
  % inhibition: 26%

## 548540 (antisense eG*eA*k[5mC]*dA*d[5mC]*d[5mC]*dT*dG*d[5mC]*dT*dT*dG*dA*kT*kT*eA) [compound 548540]
[5]
  % inhibition: 7%

## 548341 (antisense eT*eA*kG*dA*dA*d[5mC]*d[5mC]*dT*dT*d[5mC]*d[5mC]*dT*d[5mC]*k[5mC]*kA*e[5mC]) [compound 548341]
[6]
  % inhibition: 30%

## 547910 (eA*e[5mC]*k[5mC]*dA*dA*dT*dT*dT*d[5mC]*dT*dG*dA*dA*kA*kG*eG; antisense) [compound 547910]
[7]
  % inhibition: 26%
[8]
  % inhibition: 34%

## 548464 (eG*eT*k[5mC]*d[5mC]*dT*dA*dT*dA*dA*d[5mC]*dT*dA*dT*kA*kT*e[5mC]; antisense) [compound 548464]
[9]
  % inhibition: 0%

## 547923 (eA*eT*k[5mC]*dT*dG*dG*dA*dG*dT*dG*dA*dG*dA*kA*k[5mC]*e[5mC]; antisense) [compound 547923]
[1]
  % inhibition: 68%

## 548674 (antisense eG*eA*kG*dA*dG*dA*d[5mC]*dG*dG*d[5mC]*dA*d[5mC]*d[5mC]*k[5mC]*kT*eG) [compound 548674]
[10]
  % inhibition: 4%

## 548096 (antisense eG*eT*kG*dT*dT*dT*dG*d[5mC]*dA*dA*dA*d[5mC]*dT*kA*kA*eG) [compound 548096]
[11]
  % inhibition: 23%

## 548475 (eA*eT*k[5mC]*dG*dA*dG*dT*d[5mC]*d[5mC]*dT*dG*d[5mC]*d[5mC]*kT*k[5mC]*e[5mC]; antisense) [compound 548475]
[9]
  % inhibition: 17%

## 548576 (eT*e[5mC]*kA*dT*dG*dT*dG*dG*d[5mC]*dA*dA*d[5mC]*d[5mC]*kT*kG*eT; antisense) [compound 548576]
[5]
  % inhibition: 41%

## 548021 (e[5mC]*eA*k[5mC]*dT*d[5mC]*dT*d[5mC]*d[5mC]*d[5mC]*d[5mC]*dA*dA*dG*kA*kA*eG; antisense) [compound 548021]
[12]
  % inhibition: 0%

## 548645 (antisense e[5mC]*e[5mC]*kA*dG*d[5mC]*dG*d[5mC]*dA*dA*dT*dT*d[5mC]*dT*kG*k[5mC]*eT) [compound 548645]
[10]
  % inhibition: 8%

## 547884 (e[5mC]*eG*kT*dG*dG*d[5mC]*dA*dT*dA*dT*dG*dA*dA*kA*kA*eA; antisense) [compound 547884]
[7]
  % inhibition: 87%
[8]
  % inhibition: 49%

## 548248 (antisense eT*eG*k[5mC]*dG*dA*dT*dT*dT*dT*d[5mC]*d[5mC]*dA*dT*kG*k[5mC]*eA) [compound 548248]
[3]
  % inhibition: 13%

## 548071 (eA*eG*kA*dA*dG*d[5mC]*d[5mC]*d[5mC]*d[5mC]*dA*dT*d[5mC]*d[5mC]*kG*kG*eT; antisense) [compound 548071]
[12]
  % inhibition: 55%

## 548434 (antisense eA*e[5mC]*kA*dA*dT*dA*dT*d[5mC]*dA*d[5mC]*dT*dG*dT*kA*k[5mC]*e[5mC]) [compound 548434]
[13]
  % inhibition: 63%

## 547885 (e[5mC]*eT*k[5mC]*dT*dG*d[5mC]*d[5mC]*dT*dT*dG*dT*dG*dA*kA*kA*eT; antisense) [compound 547885]
[7]
  % inhibition: 45%
[8]
  % inhibition: 57%

## 547881 (eA*eT*kT*d[5mC]*dT*dT*d[5mC]*dA*dA*d[5mC]*dA*d[5mC]*dT*kG*k[5mC]*eT; antisense) [compound 547881]
[7]
  % inhibition: 0%
[8]
  % inhibition: 50%

## 548204 (eT*e[5mC]*kT*dG*dA*d[5mC]*dT*dA*dG*dT*dG*dA*dA*kT*kG*eG; antisense) [compound 548204]
[2]
  % inhibition: 25%

## 548084 (eA*eA*kG*dG*dG*dA*d[5mC]*d[5mC]*dA*d[5mC]*d[5mC]*dT*dG*kA*kA*eT; antisense) [compound 548084]
[11]
  % inhibition: 0%

## 548104 (antisense eA*eT*kG*dT*dA*d[5mC]*dT*d[5mC]*dA*dG*d[5mC]*dG*dA*k[5mC]*kT*eT) [compound 548104]
[11]
  % inhibition: 59%

## 548286 (antisense eG*eG*kG*dA*d[5mC]*dT*dA*d[5mC]*dA*dT*dG*d[5mC]*dA*kA*kT*eA) [compound 548286]
[3]
  % inhibition: 47%

## 548191 (eG*eT*k[5mC]*dA*dA*d[5mC]*dA*dT*dA*dT*dT*d[5mC]*d[5mC]*kA*kT*eG; antisense) [compound 548191]
[2]
  % inhibition: 0%

## 548205 (eT*e[5mC]*kA*dA*dT*d[5mC]*dT*dG*dA*d[5mC]*dT*dA*dG*kT*kG*eA; antisense) [compound 548205]
[2]
  % inhibition: 14%

## 548252 (antisense eA*e[5mC]*kT*d[5mC]*dG*d[5mC]*d[5mC]*dT*dT*dT*dG*dT*dG*kA*kT*eG) [compound 548252]
[3]
  % inhibition: 33%

## 547802 (eG*eT*kA*d[5mC]*dA*dT*dG*dG*dA*dA*dG*d[5mC]*dT*kA*k[5mC]*eA; antisense) [compound 547802]
[4]
  % inhibition: 41%

## 548395 (eA*eT*k[5mC]*d[5mC]*dT*dT*d[5mC]*d[5mC]*d[5mC]*d[5mC]*dT*d[5mC]*dG*k[5mC]*kA*eA; antisense) [compound 548395]
[13]
  % inhibition: 0%

## 548119 (antisense eT*eG*kG*dA*d[5mC]*dT*dG*d[5mC]*dT*dT*d[5mC]*dT*d[5mC]*kA*kT*eG) [compound 548119]
[11]
  % inhibition: 25%

## 548333 (antisense eG*eA*k[5mC]*dT*dG*dT*dG*d[5mC]*dT*dA*dT*d[5mC]*d[5mC]*kG*k[5mC]*eT) [compound 548333]
[6]
  % inhibition: 58%

## 548249 (antisense eT*eG*kT*dG*dA*dT*dG*d[5mC]*dG*dA*dT*dT*dT*kT*k[5mC]*e[5mC]) [compound 548249]
[3]
  % inhibition: 22%

## 548579 (eG*eG*kG*d[5mC]*dT*dA*dT*dA*dT*dT*dG*d[5mC]*d[5mC]*kA*kG*e[5mC]; antisense) [compound 548579]
[5]
  % inhibition: 46%

## 548013 (eG*eT*k[5mC]*d[5mC]*d[5mC]*d[5mC]*dA*dG*dT*dG*dT*dT*dA*k[5mC]*kA*e[5mC]; antisense) [compound 548013]
[12]
  % inhibition: 37%

## 547909 (e[5mC]*e[5mC]*kA*dA*dT*dT*dT*d[5mC]*dT*dG*dA*dA*dA*kG*kG*eG; antisense) [compound 547909]
[7]
  % inhibition: 82%
[8]
  % inhibition: 51%

## 548136 (eG*eG*k[5mC]*dT*d[5mC]*dA*dG*dA*dA*dT*dT*dT*dG*kA*k[5mC]*eT; antisense) [compound 548136]
[11]
  % inhibition: 39%

## 548215 (eG*e[5mC]*kA*dT*dA*dG*dA*d[5mC]*d[5mC]*d[5mC]*d[5mC]*dA*dA*k[5mC]*kA*eG; antisense) [compound 548215]
[2]
  % inhibition: 61%

## 548235 (eT*e[5mC]*kT*dA*dG*dA*dT*dG*dA*d[5mC]*d[5mC]*dT*dG*kA*kA*eG; antisense) [compound 548235]
[3]
  % inhibition: 0%

## 548651 (antisense eA*eG*kT*d[5mC]*dT*d[5mC]*dT*dT*dT*d[5mC]*d[5mC]*dT*dA*k[5mC]*k[5mC]*e[5mC]) [compound 548651]
[10]
  % inhibition: 61%

## 547937 (eT*eG*kT*dG*dA*d[5mC]*dT*d[5mC]*dG*dA*dT*dT*dT*kT*k[5mC]*e[5mC]; antisense) [compound 547937]
[1]
  % inhibition: 56%

## 548107 (antisense eT*e[5mC]*k[5mC]*dA*dT*dG*dT*dA*d[5mC]*dT*d[5mC]*dA*dG*k[5mC]*kG*eA) [compound 548107]
[11]
  % inhibition: 76%
